Measurements as given in article PMC10954696, “Development of a novel AAK1 inhibitor via Kinobeads-based screening” (Scientific Reports, 2024).
pIC50: −log10 of the molar value. Entries after “also recorded” stand apart in the source; their conditions may differ.

Key:
His-tagged AAK1 = target: T1, His-tagged AAK1 (Homo sapiens, UniProt Q2M2I8); test: Pull-down of His-tagged AAK1 from COS-7 cell extracts with TIM-063–immobilized sepharose (TIM-127-sepharose); assay type: binding; conditions: COS-7 extracts, elution with 100 µM TIM-063
T1 construct: expressed in transfected cells; host or cells: COS-7 cells
Protocol: COS-7 cells transfected with expression plasmids for His-tagged AAK1 were lysed with buffer A containing protease inhibitors as described above, and then cell lysates (200 µL) were incubated with either TIM-127-coupled sepharose or control sepharose (10 µL) for 30 min. After washing the resin thrice with buffer A (500 µL), samples were eluted from the sepharose resin by incubation with 20 µL of 100 µM TIM-063 in buffer A as previously described, followed by immunoblot analysis.

[1] = target: T2, His-tagged AAK1 catalytic domain (25–396) (Homo sapiens, UniProt Q2M2I8); test: AAK1 activity assay: phosphorylation of GST-AP2µ2 (145–162) by His-AAK1 25–396 with [γ-32P]ATP; assay type: biochemical; conditions: for pIC50: His-AAK1 25–396, GST-AP2µ2 (145–162), 100 µM [γ-32P]ATP, 30 °C, 20 min, read-out: IC50 against AAK1 activity
T2 construct: Purified His-AAK1 25–396 (200 ng); His10 (N); made in house; host or cells: COS-7 cells
Protocol: AAK1 phosphorylates AP2µ2 at Thr156; therefore, we set up an AAK1 activity assay using GST-fused AP2µ2 fragment (residues 145–162) as a substrate and anti-phospho-Thr156 antibody for detection of the substrate phosphorylation by AAK1.
(§1) Purified His-AAK1 25–396 (200 ng), His-GAK 2–370 (33 ng), His-BIKE 2–396 (87 ng), and His-STK16 2–306 (95 ng) were incubated with 10 µg GST-AP2µ2 (145–162)-His6 in a solution (20 µL) containing 50 mM HEPES pH7.5, 10 mM Mg(CH3COO)2, 1 mM DTT, and 0.1 mM [γ-^32P]ATP or ATP at 30 °C for the indicated time periods (His-GAK 2–370, 10 min; His-BIKE 2–396, 90 min; His-STK16 2–306, 20 min) in the presence or absence of various concentrations of inhibitors (5% DMSO). Then, 15 µL of the sample was spotted onto Whatman P81 paper and washed using 95% EtOH, followed by scintillation counting of the paper to measure the phosphate incorporation into GST-AP2µ2 (145–162)-His6. For immunoblot detection, reactions were terminated by the addition of an equal volume of 2 × SDS-PAGE buffer at various time points, followed by immunoblot analyses using an anti-phospho-AP2µ2 (AP2M1) at Thr156 antibody.

CaMKKβ/2 [2] = target: T3, CaMKKβ/2 (Rattus norvegicus, UniProt O88831); set-up: method as in PMID 32298102; conditions: cited from earlier work
T3 construct: His6; made in house; host or cells: COS-7 cells

CaMKKα/1 [3] = target: T4, CaMKKα/1 (Rattus norvegicus, UniProt P97756); set-up: method as in PMID 32298102; conditions: cited from earlier work
T4 construct: His6; made in house; host or cells: COS-7 cells

HeLa cells = test: Early endosome formation (EEA1-positive vesicles), immunofluorescence microscopy; assay type: cell-based, human; conditions: 10 µM, 6 h, untransfected HeLa cells
Protocol: (§2) HeLa cells were cultured in 6-well plates containing Dulbecco’s modified Eagle’s medium supplemented with 10% fetal bovine serum at 37 °C in 5% CO2. The cells were transfected with 2 µg of an AAK1-expression plasmid (pME-His-AAK1 1–863) using polyethylenimine “MAX” according to the manufacturer’s protocol. After 42 h of culture, the cells were cultured with or without 10 µM TIM-098a for 6 h. HeLa cells grown on coverslips were fixed with 3.7% paraformaldehyde in PBS for 15 min and permeabilized with 0.1% Triton X-100 in PBS for 5 min at room temperature. Next, the cells were blocked with 4% bovine serum albumin (BSA) in PBS for 15 min and incubated with primary antibodies diluted in 4% BSA in PBS for 15 min. The cells were washed three times with PBS and incubated for 15 min with the appropriate secondary antibodies conjugated to Alexa fluorophores. After washing, the coverslips were mounted on microscope slides and viewed under an FV1000 confocal microscope (Olympus, Tokyo, Japan). Quantification of EEA1-positive vesicles was performed using ImageJ software. EEA1 fluorescence signals with areas greater than 430 nm^2 were counted as EEA1-positive vesicles using the particle analyzer function in ImageJ. To account for clustered EEA1 signals, the watershed segmentation method was applied in ImageJ before using the particle analyzer.

[4] = test system: HeLa cells overexpressing His-tagged AAK1 (1–863); test: as above; assay type: cell-based, human; conditions: 10 µM, 6 h, AAK1-transfected HeLa cells
Protocol: as §2

[5] = target: T5, AAK1 catalytic domain (25–396) in transfected COS-7 cells (Homo sapiens, UniProt Q2M2I8); test: AAK1 activity in transfected COS-7 cells (pThr156 of GST-AP2µ2 145–162, immunoblot); assay type: cell-based; conditions: COS-7 cells expressing AAK1 25–396 and GST-AP2µ2 (145–162), 6 h treatment
T5 construct: transfected with 0.2 µg of pME-His-AAK1 25–396; expressed in transfected cells; host or cells: COS-7 cells
Protocol: To examine the effect of TIM-098a on AAK1 activity in cells, we set up an AAK1 activity assay in the cells as follows. Transfection of expression plasmids for the catalytic domain of AAK1(25–396) together with its artificial substrate (GST-AP2µ2 145–162) into COS-7 cells was followed by detection of phosphorylation of Thr156 via immunoblot analyses with anti-phospho-Thr156 antibody after 6 h-treatment with or without TIM-098a (Fig. 5). […] When we treated AAK1/GST-AP2µ2 (145–162) expressing COS-7 cells with various concentrations of TIM-098a, AAK1-catalyzed Thr156 phosphorylation of GST-AP2µ2 (145–162) was suppressed by TIM-098a treatment in a concentration-dependent manner (Fig. 5b), indicating the cell-membrane permeability and inhibitory effect of the inhibitor on AAK1 activity in the cells.
COS-7 cells and HeLa cells were obtained from American Type Culture Collection. COS-7 cells were cultured in 6-well plates or 10 cm dishes in Dulbecco’s modified Eagle’s medium supplemented with 10% fetal bovine serum at 37 °C in 5% CO2. COS-7 cells in 6-well plates were transfected with 0.2 µg of pME-His-AAK1 25–396 and 1.8 µg of pME-GST-AP2µ2 (145–162) expression plasmids using polyethylenimine “MAX” (Polysciences, Inc. Warrington, PA), according to the manufacturer’s protocol. […]

CaMKKβ/2 [6] = target: T3, CaMKKβ/2; test: CaMKK activity assay: phosphorylation of GST-CaMKIα 1–293KE; assay type: biochemical; conditions: up to 2.6 µM, immunoblot anti-phospho-CaMKIα (pThr177), 30 °C, 10 min, Fig. 4c
Protocol: (§3) Purified His-CaMKKα/1 or His-CaMKKβ/2 (40 ng) was incubated with 10 µg GST-CaMKIα 1–293KE in a solution (20 µL) containing 50 mM HEPES pH7.5, 10 mM Mg (CH3COO)2, 1 mM DTT, 2 mM CaCl2, 6 µM CaM, and 0.1 mM [γ-^32P]ATP at 30 °C for a reaction time of 20 min in the presence or absence of compounds. Then, 15 µL of the sample was spotted onto Whatman P81 paper, followed by scintillation counting of the paper as described above to measure the phosphate incorporation into GST-CaMKIα 1–293KE. Reactions were terminated by the addition of an equal volume of 2 × SDS-PAGE for the immunoblot assay at 30 °C for 10 min using 2.5 ng of CaMKKs in the solution described above containing 0.1 mM ATP, followed by immunoblot analyses using anti-phospho-CaMKIα at the Thr177 antibody.

CaMKKα/1 [7] = target: T4, CaMKKα/1; test: as above; assay type: biochemical; conditions: up to 2.6 µM, immunoblot anti-phospho-CaMKIα (pThr177), 30 °C, 10 min, Fig. 4c
Protocol: as §3

His-GAK 2–370 = target: T6, His-GAK 2–370 (Mus musculus, UniProt Q99KY4); test: NAKs activity assay: phosphorylation of GST-AP2µ2 (145–162); assay type: biochemical; conditions: His-GAK 2–370, 0.1 mM ATP, 30 °C, 10 min, duplicate experiments; read-out: IC50 against GAK activity
T6 construct: His-GAK 2–370 (33 ng); His6 (N); made in house; host or cells: COS-7 cells
T6 sequence (Q99KY4 2-370): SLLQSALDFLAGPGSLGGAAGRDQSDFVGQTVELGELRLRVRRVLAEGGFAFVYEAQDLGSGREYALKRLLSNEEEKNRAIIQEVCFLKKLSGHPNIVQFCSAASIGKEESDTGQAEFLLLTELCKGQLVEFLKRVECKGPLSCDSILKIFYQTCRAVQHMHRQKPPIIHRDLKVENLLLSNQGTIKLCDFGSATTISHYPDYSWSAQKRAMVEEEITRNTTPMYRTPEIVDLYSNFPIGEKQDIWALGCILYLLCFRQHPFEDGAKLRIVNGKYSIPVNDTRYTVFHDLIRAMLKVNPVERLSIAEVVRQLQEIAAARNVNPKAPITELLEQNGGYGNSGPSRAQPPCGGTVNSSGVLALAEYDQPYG
Protocol: as §1
(§4) Supplemental Information S3
(§5) Effect of TIM-98a on NAKs’ activities. Purified His-GAK 2–370 (33 ng, closed triangles), His-BIKE 2–396 (87 ng, closed circles), and His-STK16 2–306 (95 ng, open circles) were incubated with 10 µg GST-AP2µ2 (145–162)-His6 in a solution (20 µL) containing 50 mM HEPES pH7.5, 10 mM Mg(CH3COO)2, 1 mM DTT, and 0.1 mM ATP at 30°C for the indicated time periods (His-GAK 2–370, 10 min; His-Bike 2–396, 90 min; His-STK16 2–306, 20 min) in the presence or absence (-) of various concentrations of TIM-098a. […] NAK’s activities are quantitated by densitometric scanning of the immunoreactive bands and expressed as a percentage of the average value in the absence of the compound (-). Results represent duplicate experiments. Molecular mass markers (kDa) are indicated in the left lanes of immunoblot panels.
(§6) (1 picture or pasted object on this page, not shown here)

His-STK16 2–306 = target: T7, His-STK16 2–306 (Mus musculus, UniProt O88697); test: as above; assay type: biochemical; conditions: His-STK16 2–306, 0.1 mM ATP, 30 °C, 20 min, duplicate experiments; read-out: IC50 against STK16 activity
T7 construct: His-STK16 2–306 (95 ng); His6 (N); made in house; host or cells: COS-7 cells
Protocol: as §1, §4, §5, §6

His-BIKE 2–396 = target: T8, His-BIKE 2–396 (Mus musculus, UniProt Q91Z96); test: as above; assay type: biochemical; conditions: His-BIKE 2–396, 0.1 mM ATP, 30 °C, 90 min, duplicate experiments; read-out: IC50 against BIKE activity
T8 construct: His-BIKE 2–396 (87 ng); His6 (N); made in house; host or cells: COS-7 cells
Protocol: as §1, §4, §5, §6

T2 sequence (Q2M2I8 25-396): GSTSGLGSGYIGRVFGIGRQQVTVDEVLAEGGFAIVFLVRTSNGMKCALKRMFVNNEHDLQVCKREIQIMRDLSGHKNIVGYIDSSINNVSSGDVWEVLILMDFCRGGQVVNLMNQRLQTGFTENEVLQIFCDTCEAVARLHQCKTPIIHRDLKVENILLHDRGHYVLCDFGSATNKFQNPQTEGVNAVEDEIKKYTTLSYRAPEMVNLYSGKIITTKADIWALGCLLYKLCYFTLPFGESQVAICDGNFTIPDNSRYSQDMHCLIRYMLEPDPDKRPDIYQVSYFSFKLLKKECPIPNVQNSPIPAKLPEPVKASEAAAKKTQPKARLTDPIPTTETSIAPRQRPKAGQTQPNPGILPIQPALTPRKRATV
T7 sequence (O88697 2-305 limits assumed): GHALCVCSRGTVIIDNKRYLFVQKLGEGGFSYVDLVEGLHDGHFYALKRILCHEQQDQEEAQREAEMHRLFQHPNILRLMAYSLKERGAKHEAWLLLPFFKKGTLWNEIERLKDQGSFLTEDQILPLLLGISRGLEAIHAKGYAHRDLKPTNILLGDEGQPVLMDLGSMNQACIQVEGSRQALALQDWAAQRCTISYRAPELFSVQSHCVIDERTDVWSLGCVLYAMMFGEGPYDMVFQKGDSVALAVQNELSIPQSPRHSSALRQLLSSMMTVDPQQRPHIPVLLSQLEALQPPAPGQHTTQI
T5 sequence (Q2M2I8 25-396): as the sequence (Q2M2I8 25-396) above
T8 sequence (Q91Z96 2-396): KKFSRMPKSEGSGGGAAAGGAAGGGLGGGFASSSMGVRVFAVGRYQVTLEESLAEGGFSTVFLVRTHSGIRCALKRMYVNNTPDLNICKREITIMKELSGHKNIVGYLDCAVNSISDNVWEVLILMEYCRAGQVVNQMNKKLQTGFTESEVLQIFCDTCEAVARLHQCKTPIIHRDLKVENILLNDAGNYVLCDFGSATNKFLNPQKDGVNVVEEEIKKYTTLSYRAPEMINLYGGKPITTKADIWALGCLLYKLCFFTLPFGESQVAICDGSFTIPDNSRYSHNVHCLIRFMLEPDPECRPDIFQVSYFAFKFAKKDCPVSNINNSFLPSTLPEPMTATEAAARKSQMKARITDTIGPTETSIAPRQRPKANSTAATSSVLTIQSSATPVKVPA

interaction with AAK1 catalytic domain (His-AAK 25–396) (His-tagged AAK1) | interaction with His-tagged AAK1 full length (1–863) (His-tagged AAK1) | inhibition at 2.6 µM ([1]; 2.6 µM compound) [%] | inhibition at 26 µM ([1]; 26 µM compound) [%] | pIC50 [1] | inhibitory effect on AAK1 relative to that on CaMKK ([1]; lower on AAK1 than on CaMKK) | AAK1 inhibitory potency relative to TIM-063 ([1]; higher potency than TIM-063) | selectivity for AAK1: higher inhibitory potency than for other NAKs ([1]; versus GAK, BIKE, STK16) | pIC50 [5] | pIC50 (His-GAK 2–370) | pIC50 (His-STK16 2–306) | pIC50 (His-BIKE 2–396) | Compound | pIC50 (CaMKKβ/2 [2]) | pIC50 (CaMKKα/1 [3]) | early endosome formation in wild type cells (HeLa cells) | number of early endosomes in AAK1-transfected cells [4] | effect on CaMKKβ/2 activity (CaMKKβ/2 [6]) | effect on CaMKKα/1 activity (CaMKKα/1 [7])
strong interaction | weak binding | ~20 | ~80 | 5.07 | ~ tenfold |  |  |  |  |  |  | O=c1c2cccc3c([N+](=O)[O-])c(O)cc(c32)c2nc3ccccc3n12 [TIM-063, 2-hydroxy-3-nitro-7H-benzo[de]benzo[4,5]imidazo[2,1-a]isoquinolin-7-one] | 6.02 | 6.20 |  |  |  | 
 |  |  |  | 6.62 |  | ~ 35 fold | 4–30 fold | 6.06 | 5.98 | 5.15 | 5.22 | Nc1ccc2c(c1)nc1c3cc(O)cc4cccc(c(=O)n21)c43 [TIM-098a, 11-amino-2-hydroxy-7H-benzo[de]benzo[4,5]imidazo[2,1-a]isoquinolin-7-one] |  |  | not affected | recovered to the level of untransfected wild type cells | without any significant inhibitory effects; also recorded: without any inhibitory activity | without any significant inhibitory effects; also recorded: without any inhibitory activity
